Data: the NIST ThermoML archive (doi:10.1021/je500498m)

Assay: xn = mol fraction of the nth substance listed
Details: for speed of sound: 100 kPa, Sing-around technique in a fixed-path interferometer; for speed of sound / viscosity / mass density: Liquid; for viscosity / mass density: 101 kPa; for viscosity: Falling or rolling sphere viscometry; for mass density: Vibrating tube method; for surface tension liquid-gas: 294.4 K, Pendant drop shape

CCCCCCCCCCCCCCCC [hexadecane] + CCc1ccccc1
Details	mass density [kg/m3]	speed of sound [m/s]	viscosity [mPa·s]
293.15 K, x2 = 0	773.49	1357.3	3.44
293.15 K, x2 = 0.1007	777.15	1353.4	3.01
293.15 K, x2 = 0.2	781.37	1349.4	2.63
293.15 K, x2 = 0.3002	786.28	1345.2	2.28
293.15 K, x2 = 0.4013	792.08	1340.7	1.96
293.15 K, x2 = 0.5002	798.81	1336.7	1.69
293.15 K, x2 = 0.6001	806.86	1333.1	1.43
293.15 K, x2 = 0.7002	816.95	1330.4	1.21
293.15 K, x2 = 0.8001	829.46	1329.3	1.01
293.15 K, x2 = 0.9	845.47	1331.5	0.83
303.15 K, x2 = 0	766.55	1320	2.72
303.15 K, x2 = 0.1007	770.16	1316	2.42
303.15 K, x2 = 0.2	774.31	1312	2.14
303.15 K, x2 = 0.3002	779.13	1307.8	1.88
303.15 K, x2 = 0.4013	784.83	1303.1	1.64
303.15 K, x2 = 0.5002	791.42	1298.9	1.42
303.15 K, x2 = 0.6001	799.32	1295	1.23
303.15 K, x2 = 0.7002	809.21	1291.9	1.05
303.15 K, x2 = 0.8001	821.46	1291.1	0.88
303.15 K, x2 = 0.9	837.13	1291.3	0.73
313.15 K, x2 = 0	759.63	1283.3	–
313.15 K, x2 = 0.1007	763.17	1279.2	–
313.15 K, x2 = 0.2	767.24	1275.1	–
313.15 K, x2 = 0.3002	771.97	1270.8	–
313.15 K, x2 = 0.4013	777.56	1266	–
313.15 K, x2 = 0.5002	784.01	1261.6	–
313.15 K, x2 = 0.6001	791.75	1257.4	–
313.15 K, x2 = 0.7002	801.42	1253.8	–
313.15 K, x2 = 0.8001	813.41	1251.3	–
313.15 K, x2 = 0.9	828.73	1251.6	–
323.15 K, x2 = 0	752.71	1247.3	1.82
323.15 K, x2 = 0.1007	756.18	1243.2	1.65
323.15 K, x2 = 0.2	760.17	1239	1.49
323.15 K, x2 = 0.3002	764.8	1234.5	1.34
323.15 K, x2 = 0.4013	770.27	1229.4	1.19
323.15 K, x2 = 0.5002	776.58	1224.8	1.05
323.15 K, x2 = 0.6001	784.14	1220.3	0.92
323.15 K, x2 = 0.7002	793.6	1216.2	0.8
323.15 K, x2 = 0.8001	805.42	1213.1	0.68
323.15 K, x2 = 0.9	820.29	1212.5	0.57
333.15 K, x2 = 0	745.79	1212	1.53
333.15 K, x2 = 0.1007	749.19	1207.7	1.4
333.15 K, x2 = 0.2	753.09	1203.4	1.28
333.15 K, x2 = 0.3002	757.62	1198.8	1.15
333.15 K, x2 = 0.4013	762.96	1193.6	1.03
333.15 K, x2 = 0.5002	769.13	1188.6	0.92
333.15 K, x2 = 0.6001	776.51	1183.8	0.81
333.15 K, x2 = 0.7002	785.74	1179.2	0.7
333.15 K, x2 = 0.8001	797.18	1175.5	0.6
333.15 K, x2 = 0.9	811.8	1173.9	0.52
343.15 K, x2 = 0	738.9	–	1.31
343.15 K, x2 = 0.1007	742.2	–	1.21
343.15 K, x2 = 0.2	746	–	1.1
343.15 K, x2 = 0.3002	750.4	–	1.01
343.15 K, x2 = 0.4013	755.6	–	0.9
343.15 K, x2 = 0.5002	761.6	–	0.81
343.15 K, x2 = 0.6001	768.9	–	0.71
343.15 K, x2 = 0.7002	777.9	–	0.62
343.15 K, x2 = 0.8001	789	–	0.54
343.15 K, x2 = 0.9	803.3	–	0.47
353.15 K, x2 = 0	731.8	–	1.13
353.15 K, x2 = 0.1007	735	–	1.05
353.15 K, x2 = 0.2	738.7	–	0.96
353.15 K, x2 = 0.3002	743	–	0.88
353.15 K, x2 = 0.4013	748.1	–	0.8
353.15 K, x2 = 0.5002	754	–	0.71
353.15 K, x2 = 0.6001	761.1	–	0.64
353.15 K, x2 = 0.7002	769.8	–	0.56
353.15 K, x2 = 0.8001	780.7	–	0.49
353.15 K, x2 = 0.9	794.5	–	0.43
363.15 K, x2 = 0	724.7	–	0.99
363.15 K, x2 = 0.1007	727.8	–	0.92
363.15 K, x2 = 0.2	731.5	–	0.85
363.15 K, x2 = 0.3002	735.6	–	0.78
363.15 K, x2 = 0.4013	740.6	–	0.7
363.15 K, x2 = 0.5002	746.3	–	0.63
363.15 K, x2 = 0.6001	753.1	–	0.58
363.15 K, x2 = 0.7002	761.6	–	0.51
363.15 K, x2 = 0.8001	772.2	–	0.45
363.15 K, x2 = 0.9	785.6	–	0.39
373.15 K, x2 = 0	717.5	–	0.87
373.15 K, x2 = 0.1007	720.6	–	0.82
373.15 K, x2 = 0.2	724.1	–	0.76
373.15 K, x2 = 0.3002	728.1	–	0.69
373.15 K, x2 = 0.4013	732.9	–	0.63
373.15 K, x2 = 0.5002	738.4	–	0.57
373.15 K, x2 = 0.6001	745.1	–	0.52
373.15 K, x2 = 0.7002	753.3	–	0.47
373.15 K, x2 = 0.8001	763.6	–	0.41
373.15 K, x2 = 0.9	776.6	–	0.36

Details	surface tension liquid-gas [mN/m]
x2 = 0	27.3
x2 = 0.2	27.4
x2 = 0.4013	27.5
x2 = 0.5002	27.5
x2 = 0.6001	27.8
x2 = 0.7002	28
x2 = 0.8001	28.2
x2 = 0.9	28.5
